The IC50 is the concentration needed to halve the response being measured. A lower IC50 goes with higher potency. Broadly, the inhibition is the drop in the measured response relative to a control, in per cent.

Data on 16 compounds can be found in ChEMBL document CHEMBL1150306, “2-Trifluoroacetylthiophenes, a novel series of potent and selective class II histone deacetylase inhibitors” (Bioorg Med Chem Lett, 2008).

The target of assay [1] is T1, Histone deacetylase 1 (Homo sapiens, UniProt Q13547). Briefly: Inhibition of HDAC1.
Assay [2] has as its target T2, Histone deacetylase 3 (Homo sapiens, UniProt O15379). Description: Inhibition of HDAC3.
Assay [3] has as its target Histone deacetylase 4 (Homo sapiens, UniProt P56524, H976Y). Briefly: Inhibition of HDAC4GOF mutant expressed in Escherichia coli.
For assay [4], the target named is Histone deacetylase 4 (Homo sapiens, UniProt P56524). Briefly: Inhibition of wild type HDAC4 expressed in Escherichia coli.
The target in assay [5] is T3, Protein deacetylase HDAC6 (Homo sapiens, UniProt Q9UBN7).
T3 sequence (Q9UBN7 whole entry): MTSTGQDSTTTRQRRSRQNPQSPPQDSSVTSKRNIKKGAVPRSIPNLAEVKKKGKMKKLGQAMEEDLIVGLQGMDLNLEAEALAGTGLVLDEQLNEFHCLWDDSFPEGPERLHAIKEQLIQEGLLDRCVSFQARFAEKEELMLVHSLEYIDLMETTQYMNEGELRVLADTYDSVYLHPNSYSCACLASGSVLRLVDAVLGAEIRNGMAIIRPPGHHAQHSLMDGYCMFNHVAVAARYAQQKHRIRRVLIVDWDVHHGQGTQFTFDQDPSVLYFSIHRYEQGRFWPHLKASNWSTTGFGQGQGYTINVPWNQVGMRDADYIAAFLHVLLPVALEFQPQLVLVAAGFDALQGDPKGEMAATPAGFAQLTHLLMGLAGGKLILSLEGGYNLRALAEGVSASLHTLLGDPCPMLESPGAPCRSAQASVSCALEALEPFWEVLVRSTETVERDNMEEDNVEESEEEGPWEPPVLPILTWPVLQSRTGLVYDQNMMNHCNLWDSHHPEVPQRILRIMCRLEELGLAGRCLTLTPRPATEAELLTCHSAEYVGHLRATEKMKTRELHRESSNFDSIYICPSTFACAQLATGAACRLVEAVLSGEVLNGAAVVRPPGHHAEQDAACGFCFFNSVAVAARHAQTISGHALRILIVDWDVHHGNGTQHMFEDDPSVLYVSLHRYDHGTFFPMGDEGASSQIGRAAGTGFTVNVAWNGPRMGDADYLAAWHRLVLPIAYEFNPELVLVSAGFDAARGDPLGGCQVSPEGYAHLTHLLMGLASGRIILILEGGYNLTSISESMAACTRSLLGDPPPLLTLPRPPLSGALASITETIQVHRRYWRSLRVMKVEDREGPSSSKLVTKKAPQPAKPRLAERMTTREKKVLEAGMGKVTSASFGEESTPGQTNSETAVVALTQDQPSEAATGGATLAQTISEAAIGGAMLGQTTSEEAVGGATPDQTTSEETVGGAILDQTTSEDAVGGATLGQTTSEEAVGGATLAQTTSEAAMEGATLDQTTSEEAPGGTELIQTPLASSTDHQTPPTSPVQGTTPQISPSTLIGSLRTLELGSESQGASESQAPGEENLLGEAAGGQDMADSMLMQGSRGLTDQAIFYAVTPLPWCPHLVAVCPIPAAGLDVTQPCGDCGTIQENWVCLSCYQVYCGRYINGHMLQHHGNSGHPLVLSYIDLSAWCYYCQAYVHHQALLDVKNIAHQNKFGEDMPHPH
Description: Inhibition of HDAC6.

Assay [6] deals with T2, Histone deacetylase 3. Briefly: Inhibition of HDAC3 at 10 uM.
Assay [7] deals with T1, Histone deacetylase 1. Description: Inhibition of HDAC1 at 10 uM.

Active and inactive are the calls of the source. The calls are words filed in the database; no cut-off is given here.

Chain of Histone deacetylase 4 (Homo sapiens, UniProt P56524) (P56524 whole entry): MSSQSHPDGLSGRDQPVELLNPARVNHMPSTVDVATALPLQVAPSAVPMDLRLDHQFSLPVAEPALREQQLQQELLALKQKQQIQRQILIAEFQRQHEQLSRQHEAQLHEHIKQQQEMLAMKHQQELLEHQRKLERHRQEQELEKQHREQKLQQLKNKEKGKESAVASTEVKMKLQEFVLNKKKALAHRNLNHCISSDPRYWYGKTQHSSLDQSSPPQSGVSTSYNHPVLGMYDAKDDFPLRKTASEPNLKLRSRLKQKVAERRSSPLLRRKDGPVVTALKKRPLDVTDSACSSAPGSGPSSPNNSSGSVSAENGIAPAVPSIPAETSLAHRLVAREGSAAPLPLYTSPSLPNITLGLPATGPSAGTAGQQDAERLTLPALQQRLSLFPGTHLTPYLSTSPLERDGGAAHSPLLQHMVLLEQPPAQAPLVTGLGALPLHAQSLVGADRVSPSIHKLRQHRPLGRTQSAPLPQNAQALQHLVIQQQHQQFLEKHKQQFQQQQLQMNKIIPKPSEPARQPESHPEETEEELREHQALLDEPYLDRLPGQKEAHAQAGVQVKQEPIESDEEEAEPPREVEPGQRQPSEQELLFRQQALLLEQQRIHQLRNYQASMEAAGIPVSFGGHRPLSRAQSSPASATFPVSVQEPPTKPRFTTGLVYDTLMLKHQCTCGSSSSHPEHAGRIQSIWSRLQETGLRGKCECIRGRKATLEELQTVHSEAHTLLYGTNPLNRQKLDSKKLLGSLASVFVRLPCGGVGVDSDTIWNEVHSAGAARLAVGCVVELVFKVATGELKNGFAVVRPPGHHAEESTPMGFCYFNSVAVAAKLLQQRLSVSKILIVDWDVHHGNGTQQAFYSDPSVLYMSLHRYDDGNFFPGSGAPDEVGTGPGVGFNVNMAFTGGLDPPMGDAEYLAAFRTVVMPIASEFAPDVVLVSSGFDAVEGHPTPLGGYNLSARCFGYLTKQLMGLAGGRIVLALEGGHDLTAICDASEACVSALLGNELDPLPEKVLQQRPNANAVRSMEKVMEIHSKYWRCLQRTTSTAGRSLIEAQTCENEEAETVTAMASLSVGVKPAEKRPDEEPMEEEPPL
T1 sequence (Q13547 whole entry): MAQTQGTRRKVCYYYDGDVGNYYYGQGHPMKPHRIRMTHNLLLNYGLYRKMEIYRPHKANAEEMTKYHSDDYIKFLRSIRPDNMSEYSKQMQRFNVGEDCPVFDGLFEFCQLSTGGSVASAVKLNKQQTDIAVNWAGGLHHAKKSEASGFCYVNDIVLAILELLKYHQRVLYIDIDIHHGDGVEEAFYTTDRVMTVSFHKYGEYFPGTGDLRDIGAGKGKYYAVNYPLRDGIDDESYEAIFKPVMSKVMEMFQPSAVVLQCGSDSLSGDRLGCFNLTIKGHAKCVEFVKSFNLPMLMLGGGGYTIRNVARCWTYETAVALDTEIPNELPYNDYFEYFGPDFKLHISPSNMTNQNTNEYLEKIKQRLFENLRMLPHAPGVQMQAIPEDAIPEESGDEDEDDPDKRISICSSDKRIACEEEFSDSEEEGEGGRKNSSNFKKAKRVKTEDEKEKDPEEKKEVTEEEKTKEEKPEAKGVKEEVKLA
Chain of Histone deacetylase 4 (Homo sapiens, UniProt P56524, H976Y) (P56524 whole entry H976Y): as the sequence (P56524 whole entry) above, with H976Y counted along it
T2 sequence (O15379 whole entry): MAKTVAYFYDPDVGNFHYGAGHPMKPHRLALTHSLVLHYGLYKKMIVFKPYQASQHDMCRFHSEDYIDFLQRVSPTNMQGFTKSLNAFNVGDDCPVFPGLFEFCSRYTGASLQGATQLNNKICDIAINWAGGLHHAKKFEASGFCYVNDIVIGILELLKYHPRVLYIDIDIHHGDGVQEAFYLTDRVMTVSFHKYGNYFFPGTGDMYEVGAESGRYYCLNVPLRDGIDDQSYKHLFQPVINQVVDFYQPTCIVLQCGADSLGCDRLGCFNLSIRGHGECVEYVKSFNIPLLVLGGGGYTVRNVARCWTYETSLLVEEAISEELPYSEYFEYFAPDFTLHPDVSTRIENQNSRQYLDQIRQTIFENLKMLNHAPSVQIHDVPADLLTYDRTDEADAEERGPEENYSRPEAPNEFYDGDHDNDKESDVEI

As to `O=C(NCC1CCCCC1)c1ccc(C(=O)C(F)(F)F)s1`, the 50% inhibitory concentration (IC50) is 2.9 µM against Histone deacetylase 1 [1]; 3.1 µM against Histone deacetylase 3 [2]; 0.35 µM against Histone deacetylase 4 [3]; 0.4 µM on Histone deacetylase 4 [4]; 0.46 µM in assay [5].

Turning to `CN(Cc1ccccc1)C(=O)c1cc(C(=O)C(F)(F)F)cs1`, the result at Histone deacetylase 3 [6] and on Histone deacetylase 1 [7] was inactive. The IC50 against Histone deacetylase 4 [3] stood at 2.5 µM; against Histone deacetylase 4 [4] it was 1.7 µM; in assay [5], 0.64 µM.

Consider `O=C(c1ccc(C(=O)N2CCc3ccccc32)s1)C(F)F`, for which the concentration for half-maximal inhibition (IC50) was determined as 9.7 µM at Histone deacetylase 1 [1], 0.42 µM against Histone deacetylase 4 [3], 7.6 µM against Histone deacetylase 4 [4] and 0.015 µM in assay [5]. The same compound yielded an inhibition at Histone deacetylase 3 [6] of 42%.

Regarding `O=C(NCCc1ccccc1)c1ccc(C(=O)C(F)(F)F)s1`, the IC50 against Histone deacetylase 1 [1] was determined as 0.88 µM; against Histone deacetylase 3 [2], 1.7 µM; against Histone deacetylase 4 [3], 0.18 µM; against Histone deacetylase 4 [4], 0.33 µM; in assay [5] it was 0.21 µM.

With `CN(Cc1ccccc1)C(=O)c1ccc(C(=O)C(F)(F)F)s1`, the IC50 amounted to 1.8 µM on Histone deacetylase 1 [1]; 1.2 µM at Histone deacetylase 3 [2]; 0.17 µM against Histone deacetylase 4 [3]; 0.51 µM against Histone deacetylase 4 [4]; 0.23 µM in assay [5].

Turning to `CN(Cc1ccccc1)Cc1ccc(C(=O)C(F)(F)F)s1`, the IC50 on Histone deacetylase 1 [1] came to 3.1 µM; on Histone deacetylase 3 [2], 4.6 µM; at Histone deacetylase 4 [3], 1.1 µM; against Histone deacetylase 4 [4], 0.97 µM; in assay [5], 0.49 µM.

With `CCOC(=O)c1ccc(C(=O)C(F)(F)F)s1`, the half-maximal inhibitory concentration (IC50) on Histone deacetylase 1 [1] is 5.7 µM; against Histone deacetylase 3 [2] it was 3.5 µM; at Histone deacetylase 4 [3], 0.35 µM; against Histone deacetylase 4 [4], 0.32 µM; in assay [5], 0.55 µM.

In the case of `CCNC(=O)c1ccc(C(=O)C(F)(F)F)s1`, the half-maximal inhibitory concentration (IC50) against Histone deacetylase 1 [1] was found to be 7.1 µM; against Histone deacetylase 4 [3] it was 1 µM; against Histone deacetylase 4 [4] it was 1.7 µM; in assay [5], 0.31 µM.

As to `O=C(NCC1CCCCC1)c1cnc(C(=O)C(F)(F)F)s1`, the IC50 turned out to be 7.6 µM at Histone deacetylase 3 [2], 2.9 µM against Histone deacetylase 4 [3], 0.85 µM on Histone deacetylase 4 [4] and 1.5 µM in assay [5]. The outcome on Histone deacetylase 1 [7] was inactive.

As for `C[C@@H](NC(=O)c1ccc(C(=O)C(F)(F)F)s1)c1ccccc1`, the 50% inhibitory concentration (IC50) came to 0.32 µM at Histone deacetylase 1 [1]; 0.23 µM against Histone deacetylase 3 [2]; 0.16 µM at Histone deacetylase 4 [3]; 0.076 µM against Histone deacetylase 4 [4]; 0.36 µM in assay [5].

On to `O=C(NCC1CCCCC1)c1cc(C(=O)C(F)(F)F)cs1`, for which the outcome on Histone deacetylase 3 [6] was inactive. Besides, the values for the IC50 (at Histone deacetylase 4 [3]; on Histone deacetylase 4 [4]; in assay [5]) were 2.4 µM, 3.3 µM and 2 µM, respectively. The compound further had an inhibition against Histone deacetylase 1 [7] of 40%.

On to `CCOC(=O)c1ccc(C(=O)C(F)(F)F)o1`, for which the result at Histone deacetylase 3 [6] was inactive. Also, the IC50 at Histone deacetylase 4 [3] came out at 3.1 µM; on Histone deacetylase 4 [4], 2.5 µM; in assay [5], 0.55 µM. The same compound returned an inhibition against Histone deacetylase 1 [7] of 48%.

`CN(Cc1ccccc1)S(=O)(=O)c1ccc(C(=O)C(F)(F)F)s1`: the result at Histone deacetylase 3 [6] and at Histone deacetylase 1 [7] was inactive. Also, the half-inhibitory concentration (IC50) against Histone deacetylase 4 [3] came out at 1.2 µM; against Histone deacetylase 4 [4], 0.34 µM; in assay [5], 0.73 µM.

As for `CN(Cc1ccccc1)C(=O)c1cnc(C(=O)C(F)(F)F)s1`, the IC50 on Histone deacetylase 3 [2] was 7.3 µM; at Histone deacetylase 4 [3], 2.2 µM; against Histone deacetylase 4 [4], 0.76 µM; in assay [5], 1.3 µM. The same compound yielded an inhibition on Histone deacetylase 1 [7] of 46%.

In the case of `C[C@@H](NCc1ccc(C(=O)C(F)(F)F)s1)c1ccccc1`, the result on Histone deacetylase 3 [6] and at Histone deacetylase 1 [7] was inactive. Besides, the IC50 is 3.5 µM against Histone deacetylase 4 [3], 3.7 µM against Histone deacetylase 4 [4] and 0.84 µM in assay [5].

In the case of `COc1ccc(COCc2ccc(C(=O)C(F)(F)F)s2)cc1`, the result at Histone deacetylase 3 [6] and on Histone deacetylase 1 [7] was inactive. For the same compound, the values for the IC50 (against Histone deacetylase 4 [3]; at Histone deacetylase 4 [4]; in assay [5]) were 2.7 µM, 5.5 µM and 0.41 µM, respectively.
